Source: ChEMBL document CHEMBL1909046, “DrugMatrix in vitro pharmacology data”

What was measured:
Melanocortin receptor 3 = Melanocortin receptor 3 (Homo sapiens, UniProt P41968); assay type: cell membranes, HEK293, Membrane; conditions: hek293; note: in other assays of this panel Not Active means under 50% inhibition at 10 µM
[1] = DRUGMATRIX: Imidazoline I2, Central radioligand binding (ligand: [3H] Idazoxan); assay type: cell membranes, Rattus norvegicus, Wistar, Cerebral cortex, Membrane; conditions: Not Active = under 50% inhibition at 10 µM
[2] = DRUGMATRIX: Sigma2 radioligand binding (ligand: [3H] Ifenprodil); assay type: cell membranes, Rattus norvegicus, Wistar, Brain, Membrane; conditions: Not Active = under 50% inhibition at 10 µM
Glucocorticoid receptor = target: T1, Glucocorticoid receptor (Homo sapiens, UniProt P04150); conditions: hela s3; note: in other assays of this panel Not Active means under 50% inhibition at 10 µM
T1 sequence (P04150 whole entry): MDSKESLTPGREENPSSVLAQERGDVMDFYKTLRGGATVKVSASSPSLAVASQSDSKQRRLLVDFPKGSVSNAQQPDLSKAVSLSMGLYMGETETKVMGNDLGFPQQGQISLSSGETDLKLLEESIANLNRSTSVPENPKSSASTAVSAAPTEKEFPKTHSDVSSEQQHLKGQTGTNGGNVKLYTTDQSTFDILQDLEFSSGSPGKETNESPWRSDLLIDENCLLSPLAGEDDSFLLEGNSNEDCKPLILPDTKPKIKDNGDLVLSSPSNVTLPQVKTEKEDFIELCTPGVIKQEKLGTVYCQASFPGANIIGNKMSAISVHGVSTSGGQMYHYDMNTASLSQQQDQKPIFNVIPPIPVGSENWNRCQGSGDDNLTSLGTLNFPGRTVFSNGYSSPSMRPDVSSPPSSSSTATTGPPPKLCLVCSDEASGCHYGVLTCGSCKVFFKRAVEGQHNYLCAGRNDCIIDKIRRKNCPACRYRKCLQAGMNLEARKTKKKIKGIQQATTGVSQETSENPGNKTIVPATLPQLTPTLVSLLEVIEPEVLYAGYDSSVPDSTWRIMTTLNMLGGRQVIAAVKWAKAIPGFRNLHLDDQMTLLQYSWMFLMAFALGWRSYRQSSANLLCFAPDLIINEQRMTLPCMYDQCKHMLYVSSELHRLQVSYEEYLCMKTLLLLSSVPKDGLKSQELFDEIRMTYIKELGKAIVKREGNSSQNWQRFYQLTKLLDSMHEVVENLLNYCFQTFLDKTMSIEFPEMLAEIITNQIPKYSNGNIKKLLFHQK

[3] = target: T2, C-C chemokine receptor type 4 (Homo sapiens, UniProt P51679); assay type: cell membranes, Chem-1, Membrane; conditions: chem-1; note: in other assays of this panel Not Active means under 50% inhibition at 10 µM
T2 sequence (P51679 whole entry): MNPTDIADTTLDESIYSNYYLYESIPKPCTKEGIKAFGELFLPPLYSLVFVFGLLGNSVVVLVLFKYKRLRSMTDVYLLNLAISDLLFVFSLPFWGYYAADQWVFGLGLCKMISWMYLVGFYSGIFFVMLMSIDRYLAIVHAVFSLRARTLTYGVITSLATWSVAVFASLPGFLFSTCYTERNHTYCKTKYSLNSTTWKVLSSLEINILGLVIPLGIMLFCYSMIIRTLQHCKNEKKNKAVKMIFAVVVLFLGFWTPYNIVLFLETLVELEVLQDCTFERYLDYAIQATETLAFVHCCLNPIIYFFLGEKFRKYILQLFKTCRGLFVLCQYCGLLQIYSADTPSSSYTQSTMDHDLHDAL

[4] = target: T3, 5-hydroxytryptamine receptor 2C (Homo sapiens, UniProt P28335); assay: DRUGMATRIX: Serotonin (5-Hydroxytryptamine) 5-HT2C radioligand binding (ligand: [3H] Mesulergine); assay type: cell membranes, CHO-K1, Membrane; conditions: cho-k1; Not Active = under 50% inhibition at 10 µM
T3 sequence (P28335 whole entry): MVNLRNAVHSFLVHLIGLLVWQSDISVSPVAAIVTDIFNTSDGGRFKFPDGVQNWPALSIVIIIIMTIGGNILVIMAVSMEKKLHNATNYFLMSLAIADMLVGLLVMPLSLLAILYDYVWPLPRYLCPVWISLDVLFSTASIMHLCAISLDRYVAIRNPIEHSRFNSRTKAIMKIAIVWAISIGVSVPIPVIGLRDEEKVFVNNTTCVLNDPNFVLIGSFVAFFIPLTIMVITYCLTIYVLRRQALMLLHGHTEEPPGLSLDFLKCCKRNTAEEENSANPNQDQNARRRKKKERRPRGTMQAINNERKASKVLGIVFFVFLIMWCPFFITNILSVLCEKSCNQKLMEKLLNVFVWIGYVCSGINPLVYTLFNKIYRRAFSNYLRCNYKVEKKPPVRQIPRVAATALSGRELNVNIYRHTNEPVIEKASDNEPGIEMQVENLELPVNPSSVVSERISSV

Chain of Melanocortin receptor 3 (P41968 whole entry): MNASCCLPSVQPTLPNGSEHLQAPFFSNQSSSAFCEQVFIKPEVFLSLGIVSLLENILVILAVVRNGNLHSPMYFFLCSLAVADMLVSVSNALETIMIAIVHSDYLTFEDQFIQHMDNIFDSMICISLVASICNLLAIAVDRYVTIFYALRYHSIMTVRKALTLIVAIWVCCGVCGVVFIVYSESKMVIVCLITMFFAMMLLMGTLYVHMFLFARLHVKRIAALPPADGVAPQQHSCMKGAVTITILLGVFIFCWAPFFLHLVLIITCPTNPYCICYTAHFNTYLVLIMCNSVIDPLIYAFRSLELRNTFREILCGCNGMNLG

CCOc1ccc(NC(C)=O)cc1 [PHENACETIN]
Not Active: IC50 (Melanocortin receptor 3) | IC50 [1] | Ki [1] | IC50 [2] | Ki [2] | IC50 (Glucocorticoid receptor) | IC50 [3] | IC50 [4]

CNNCc1ccc(C(=O)NC(C)C)cc1 [PROCARBAZINE]
Not Active: IC50 (Melanocortin receptor 3) | IC50 [1] | Ki [1] | IC50 [2] | Ki [2] | IC50 (Glucocorticoid receptor) | IC50 [3] | IC50 [4]

CC(O)CO (stereo not given) [PROPYLENE GLYCOL]
Not Active: IC50 (Melanocortin receptor 3) | IC50 [1] | Ki [1] | IC50 [2] | Ki [2] | IC50 (Glucocorticoid receptor) | IC50 [3] | IC50 [4]

CADMIUM ACETATE
Not Active: IC50 (Melanocortin receptor 3) | Ki (Melanocortin receptor 3) | IC50 [1] | Ki [1] | IC50 [2] | Ki [2] | IC50 (Glucocorticoid receptor) | Ki (Glucocorticoid receptor) | IC50 [3] | Ki [3] | IC50 [4] | Ki [4]

LEAD (II) ACETATE
Not Active: IC50 (Melanocortin receptor 3) | Ki (Melanocortin receptor 3) | IC50 [1] | Ki [1] | IC50 [2] | Ki [2] | IC50 (Glucocorticoid receptor) | Ki (Glucocorticoid receptor) | IC50 [3] | Ki [3] | IC50 [4] | Ki [4]

LIPOPOLYSACCHARIDE E. COLI O55:B5
Not Active: IC50 (Melanocortin receptor 3) | Ki (Melanocortin receptor 3) | IC50 [1] | Ki [1] | IC50 [2] | Ki [2] | IC50 (Glucocorticoid receptor) | Ki (Glucocorticoid receptor) | IC50 [3] | Ki [3] | IC50 [4] | Ki [4]
